Laboratory results taken from article PMC2810428 (Journal of medicinal chemistry, 2010).

Assays:
WTβIII = WTβIII vs HeLa pair; ref [32]; cited from earlier work
SK-OV-3-MDR 1–6/6 = SK-OV-3-MDR 1–6/6 vs SK-OV-3 pair; ref [32]; cited from earlier work
L1210 and B16 cells = conditions: read-out: reported IC50 values for L1210 and B16 cells; ref [3]–[5]; cited from earlier work
L1210 cells = assay: Inhibition of L1210 cell growth; format: cell-based, murine; conditions: L1210 IC50, 9b versus 9a
MDA-MB-435 cells = assay: Cell cycle analysis by flow cytometry; format: cell-based, human; conditions: paclitaxel positive control (0.0125 µM), data not shown

SMILES	Rr (relative resistance) (WTβIII)	Rr (relative resistance) (SK-OV-3-MDR 1–6/6)	IC50 (L1210 and B16 cells) [nM]	fold decrease in potency on shifting nitro group to the 3’ position (L1210 cells) [fold]	cell cycle distribution (MDA-MB-435 cells)
COc1cc2c(cc1O)CC[C@@H]1[C@@H]2CC[C@]2(C)[C@@H](O)CC[C@@H]12 [2-methoxyestradiol]	1.0	2.6	–	–	–
COc1ccc(/C=C\c2cc(OC)c(OC)c(OC)c2)cc1O [Compound 1, Combretastatin A-4]	–	–	3 to 7	–	–
COc1cc(C2=NN(C(C)=O)C(c3cccc([N+](=O)[O-])c3)O2)cc(OC)c1OC (stereo not shown) [Compound 9b]	–	–	–	9	–
CC(=O)O[C@H]1C(=O)[C@@]2(C)[C@H]([C@H](OC(=O)c3ccccc3)[C@]3(O)C[C@H](OC(=O)[C@H](O)[C@@H](NC(=O)c4ccccc4)c4ccccc4)C(C)=C1C3(C)C)[C@]1(OC(C)=O)CO[C@@H]1C[C@@H]2O [paclitaxel]	4.7	860	–	–	identical effect
